Test results as given in patent US11597722B2, “Crystal form D of pyrazine-2(1H)-ketone compound and preparation method therefor” (ZHANGZHOU PIEN TZE HUANG PHARMACEUTICAL CO., LTD., priority 2019, dated 2023).

Assay: Pharmacokinetics in mice, single gavage
Assay type: in vivo, CD-1 mouse (male)
Details: CD-1 mouse, 300 mpk, plasma
Protocol: Experimental purpose: To test the pharmacokinetics of the compound in mice
CD-1 mouse (male), vehicle (0.5% (w/v) methylcellulose 0.5% (v/v) Tween 80 aqueous solution), trifluoroacetate of compound 0027.
The vehicle was an aqueous solution of 0.5% (w/v) methylcellulose and 0.5% (v/v) Tween 80, and it was prepared according to the following procedure:
Formulation of preparations for intragastric administration: […]
a. An appropriate amount of the test product was weighed and put into a glass bottle;
b. 70% volume of vehicle (0.5% (w/v) methyl cellulose 0.5% (v/v) Tween 80 aqueous solution) was added;
c. The preparation was stirred until it was visually homogeneous, and subjected to ultrasound in water bath as needed;
e. Make up the remaining volume of 0.5% methylcellulose+0.5% Tween 80, and the mixture was stirred until being visually homogeneous.
Animals in groups 1 and 2 were administrated 5 mg/mL and 30 mg/mL compounds by single gavage, with a dose volume of 10 mL/kg.
The body weight of the animals was weighed before administration, and the administration volume was calculated based on the body weight.
Whole blood samples (30 μL) were collected at the prescribed time (0.25, 0.5, 1, 2, 4, 6, 8, 24 h) through saphenous vein blood collection, and the actual blood collection time was recorded in the test record. […]

Tlast: 24.0 h
SMILES: COc1cc(OC)c(Cl)c(-c2nc(-c3nc(-c4cn(C)nc4C)cnc3N)cn(C)c2=O)c1
